Entries after “also recorded” stand apart in the source; their conditions may differ. Read-outs that look alike come from different tables or passages of the source.
Assays:
[1] = system: SmoA1 murine SHH-activated MB organotypic slice culture; experiment: Murine MB organotypic slice culture (OSC), cell death by cleaved caspase 3 staining; settings: 24 h treatment; for cell death (CC3 staining), result in words: relative to vehicle control; for concentration giving significant increase in cell death (CC3 standardized to DAPI): compared to control
[2] = system: patient-derived non-WNT/SHH MB OSC; experiment: Patient-derived MB OSC, cell death by CC3 staining; assay type: cell-based, human; settings: relative to vehicle controls
Method: Ex vivo, cultures can be used to evaluate drug effects on murine MB tumor cells in their microenvironment. Experiments were performed to determine whether OSC could be used as a “precision medicine” technique in medulloblastoma, e.g., whether biopsy sample from either a newly diagnosed or relapsed medulloblastoma patient could be directly obtained in the operating room, transferred to the lab, and OSCs generated and tested per the protocol, with readout of the efficacy of potential treatments within 3 days. After obtaining fresh tumor tissue from a newly diagnosed patient with a cerebellar tumor, an OSC assay using this patient-derived medulloblastoma specimen was performed. Four tumor slices were treated with vehicle (DMSO or PBS) and 6 tumor slices were treated with WP1066, fisetin, and cisplatin as positive control. […] Therefore this assay can be used at the time of diagnosis, indicating the feasibility of OSC for use in a personalized medicine based testing approach (FIG. 5C) in pediatric brain tumors. Later the neuropathology report confirmed isochromosome 17q in the specimen without MYC or MYCN amplification consistent with a non-WNT/SHH MB.

[3] = system: MB tumor stem-like cells (nestin-positive) in SmoA1 OSCs; experiment: SmoA1 OSC, CC3 and nestin co-staining (death of tumor stem-like cells); assay type: cell-based, mouse
Method: DAPI=nuclear stain, DMSO=vehicle. Treatment of human MB cells and SmoA1 OSCs with WP1066 in combination with fisetin further enhances the inhibition of cell proliferation in vitro induction of tumor cell death diffusely ex vivo, but synergistically kills the tumor stem-like cell population specifically.
Given that STA 3 and YB-1 expression colocalized to the cancer stem cell-like cells of the perivascular niche environment, experiments were performed to determine whether combined treatment with these inhibitors, fisetin and WPHH66, leads: to increased tumor cell and/or tumor stem cell like cell death. The effect of combination treatment was evaluated in the in vitro proliferation and colony formation assays. […] Next, experiments were performed to determine whether this effect was more pronounced in the stem cell compartment, where YB-1 and STAT3 are most highly expressed. SmoA1 MB ex vivo brain slices were treated with WP1066, fisetin, or combined treatment thereof. The slices were immunostained for the tumor stem-like cell marker nestin and the cell death marker CC3 to quantify the amount of cell death in the tumor stem-like cells.

[4] = system: Group 3-like D556 MB cells; experiment: Proliferation of Group 3-like MB cells
[5] = Homo sapiens, read-out: IC50, inhibition of proliferation, D556

CS(=O)(=O)OCCCCOS(C)(=O)=O [Busulfan] was tested, and the “cell death (CC3 staining), result in words” value (“cell death (CC3 staining)” for short) [1] was “minimal increase in cell death”.

N.N.[Cl][Pt][Cl] [cisplatin] was tested, and the “cell death (CC3 staining)” value [2] was “Increase in cell death” and the “concentration giving significant increase in cell death (CC3 standardized to DAPI)” value [1] was 2 µM.

With Nc1nc(=S)c2[nH]cnc2[nH]1 [6-thioguinine] the “cell death (CC3 staining)” value [1] was “minimal increase in cell death”.

With CC(NC(=O)C(C#N)=Cc1cccc(Br)n1)c1ccccc1 (stereo not shown) [WP1066, 3-(6-bromopyridin-2-yl)-2-cyano-N-(1-phenylethyl)acrylamide] the “percentage of CC3/nestin-positive cells (dead nestin-positive cells)” value [3] was 1.4%, the “cell death (CC3 staining)” value [2] was “induced cell death; also recorded: Increase in cell death” and the IC50 [4, 5] was 1.5 µM. For the same compound, the IC50 ([4]; read-out: IC50, inhibition of proliferation, D556) was 1.2 µM, the “concentration giving significant increase in cell death (CC3 standardized to DAPI)” value [1] was “greater than 1.5 μM” and the “cell death (CC3 staining)” value [1] was “significantly increased cell death; also recorded: induces marked tumor cell death; also recorded: dose-dependent increase in cell death”.

O=c1c(O)c(-c2ccc(O)c(O)c2)oc2cc(O)ccc12 [fisetin, 2-(3,4-dihydroxyphenyl)-3,7-dihydroxy-4H-chromen-4-one] was tested, and the “percentage of CC3/nestin-positive cells (dead nestin-positive cells)” value [3] was 1.6%, the “cell death (CC3 staining)” value [2] was “Increase in cell death” and the “cell death (CC3 staining)” value ([2]; listed as Fisetin) was “induced cell death”. The IC50 [4, 5] was 3.6 µM, the “concentration giving significant increase in cell death (CC3 standardized to DAPI)” value [1] was over 4 µM and the “cell death (CC3 staining)” value [1] was “induces marked tumor cell death; also recorded: dose-dependent increase in cell death”.

Source: patent publication US20210145806A1, “Methods of Treating Brain Cancer and Related Diagnostic Methods” (Emory University, priority 2019, published 2021)
